Measured values taken from PubChem BioAssay (NCI).
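Cultured in 96-well plates, cells were exposed to test compound for 48 hours across five concentrations. The concentration for 50% growth inhibition is given as GI50. Definition used: TGI = concentration required for complete inhibition of growth.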

Assays:
Assay in all cases: NCI tumour cell line growth inhibition, 48 h
[1] = tested on: COLO 205 colon
[2] = tested on: NCI-H522 lung
[3] = tested on: M14 melanoma
[4] = tested on: A498 renal
[5] = tested on: HCT-116 colon
[6] = tested on: IGROV1 ovarian
[7] = tested on: SF-539 CNS
[8] = tested on: OVCAR-4 ovarian
[9] = tested on: NCI-H460 lung
[10] = tested on: DU-145 prostate

CCN(Cc1ccc(OC)cc1)c1ccc(CO)c(Cl)c1
GI50 [1]: 0.451 µM
TGI [1]: 3.31 µM
GI50 [2]: 16.6 µM
TGI [2]: 46.7 µM
GI50 [3]: 16.1 µM
TGI [3]: 58.3 µM
GI50 [4]: 0.0306 µM
TGI [4]: 0.168 µM
GI50 [5]: 0.0875 µM
TGI [5]: 10.8 µM
GI50 [6]: 0.114 µM
TGI [6]: 1.16 µM
GI50 [7]: 19.9 µM
TGI [7]: 46.3 µM
GI50 [8]: 0.369 µM
TGI [8]: 15.9 µM
GI50 [9]: 0.317 µM
TGI [9]: 14.6 µM
GI50 [10]: 25.6 µM
TGI [10]: > 100 µM

COC(=O)N[C@H]1CCc2cc(OC)c(OC)c(OC)c2-c2ccc(SC)c(=O)cc21
GI50 [1]: < 0.01 µM
GI50 [2]: < 0.01 µM
TGI [2]: > 19.9 µM
GI50 [3]: < 0.01 µM
TGI [3]: > 26.9 µM
GI50 [4]: < 0.01 µM
TGI [4]: < 0.0255 µM
GI50 [5]: < 0.01 µM
TGI [5]: > 100 µM
GI50 [6]: < 0.01 µM
TGI [6]: > 100 µM
GI50 [7]: < 0.01 µM
GI50 [8]: 0.0205 µM
TGI [8]: > 100 µM
GI50 [9]: < 0.01 µM
TGI [9]: > 100 µM
GI50 [10]: < 0.01 µM
TGI [10]: > 100 µM

COc1ccc2c(c1)[C@@H](NC(C)=O)CCc1cc(OC)c(OC)c(OC)c1-2
TGI [1]: 0.02 µM
TGI [3]: > 22.6 µM
TGI [4]: > 100 µM
TGI [5]: 0.528 µM
TGI [6]: > 100 µM
TGI [7]: < 0.0154 µM
TGI [8]: > 100 µM
TGI [9]: > 15.8 µM
TGI [10]: 0.0433 µM

CCN1CCN(CCC(=O)Nc2cccc(-n3cc(-c4ccncc4)c(-c4ccc(Cl)c(OC)c4)n3)c2)CC1
GI50 [2]: 0.275 µM
TGI [2]: 1.19 µM
GI50 [3]: 0.387 µM
TGI [3]: 1.73 µM
GI50 [4]: 0.676 µM
TGI [4]: 2.74 µM
GI50 [5]: 0.374 µM
TGI [5]: 1.62 µM
GI50 [6]: 1.09 µM
TGI [6]: 5.18 µM
GI50 [7]: 0.362 µM
TGI [7]: 1.47 µM
GI50 [8]: 0.919 µM
TGI [8]: 7.53 µM
GI50 [9]: 0.361 µM
TGI [9]: 1.37 µM
GI50 [10]: 0.432 µM
TGI [10]: 5.96 µM

CC(C)(CN1CCCCC1)C(=O)/C=C/c1ccccc1
TGI [1]: 40.9 µM
TGI [2]: 26.8 µM
TGI [3]: 34.7 µM
TGI [4]: 57.8 µM
TGI [5]: 28.6 µM
TGI [6]: 86.6 µM
TGI [7]: 22.9 µM
TGI [8]: 73.9 µM
TGI [9]: 66.9 µM

CC(=O)/C(=C\c1ccc(Cl)cc1)c1ccccc1
GI50 [1]: 0.141 µM
TGI [1]: 0.474 µM
GI50 [2]: 0.0745 µM
TGI [2]: 3.26 µM
GI50 [4]: 0.0309 µM
TGI [4]: 0.378 µM
GI50 [6]: 0.344 µM
TGI [6]: > 100 µM
GI50 [8]: 0.382 µM
TGI [8]: > 100 µM
GI50 [9]: 0.0845 µM
TGI [9]: 13.5 µM
GI50 [10]: 0.285 µM
TGI [10]: > 100 µM

O=C(O)c1ccc(N(/C=C/C(=O)C(F)(F)F)Cc2ccc(Cl)cc2)cc1
GI50 [1]: 36.7 µM
TGI [1]: > 100 µM
GI50 [2]: 19.9 µM
TGI [2]: 61.9 µM
GI50 [3]: 22.7 µM
TGI [3]: 62.7 µM
GI50 [4]: 22 µM
TGI [4]: 62.9 µM
GI50 [5]: 20.5 µM
TGI [5]: 54.8 µM
GI50 [6]: 20.3 µM
TGI [6]: 48.9 µM
GI50 [7]: 19 µM
TGI [7]: 42.1 µM
GI50 [9]: > 100 µM
TGI [9]: > 100 µM
GI50 [10]: 22.4 µM
TGI [10]: 62.1 µM

C=CCc1cccc(C=O)c1O
GI50 [1]: > 100 µM
TGI [1]: > 100 µM
GI50 [2]: > 100 µM
TGI [2]: > 100 µM
GI50 [3]: 39.2 µM
TGI [3]: > 100 µM
GI50 [5]: 4.07 µM
TGI [5]: > 100 µM
GI50 [6]: > 100 µM
TGI [6]: > 100 µM
GI50 [7]: 30.1 µM
TGI [7]: > 100 µM
GI50 [8]: 21.7 µM
TGI [8]: > 100 µM
GI50 [9]: > 100 µM
TGI [9]: > 100 µM
GI50 [10]: > 100 µM
TGI [10]: > 100 µM

CNC(=O)Oc1cc(C(C)C)ccc1Sc1ccc(C(C)C)cc1OC(=O)NC
GI50 [1]: 14.4 µM
TGI [1]: 28.8 µM
GI50 [2]: 4.98 µM
TGI [2]: 19.1 µM
GI50 [3]: 3.61 µM
TGI [3]: 16.3 µM
GI50 [4]: 12 µM
TGI [4]: 25 µM
GI50 [5]: 2.68 µM
TGI [5]: 15.2 µM
GI50 [6]: 4.98 µM
TGI [6]: 23.8 µM
GI50 [7]: 4.07 µM
TGI [7]: 17.1 µM
GI50 [9]: 2.44 µM
TGI [9]: 11 µM
GI50 [10]: 4.32 µM
TGI [10]: 14.3 µM

CC(C)(C)CC(C)(C)c1ccc(OCCO)cc1
GI50 [1]: 4.69 µg/mL
TGI [1]: 15.4 µg/mL
GI50 [2]: 1.21 µg/mL
TGI [2]: 11.1 µg/mL
GI50 [3]: 9.29 µg/mL
TGI [3]: 20.6 µg/mL
GI50 [4]: 0.0423 µg/mL
TGI [4]: 14.2 µg/mL
GI50 [5]: 3.86 µg/mL
TGI [5]: 14.5 µg/mL
GI50 [7]: 8.77 µg/mL
TGI [7]: 19.5 µg/mL
GI50 [8]: 1.5 µg/mL
TGI [8]: 21.5 µg/mL
GI50 [9]: 2.95 µg/mL
TGI [9]: 16.4 µg/mL
GI50 [10]: 9.51 µg/mL
TGI [10]: 20.6 µg/mL

NS(=O)(=O)c1ccc(N(/C=C/C(=O)C(F)(F)F)CC(=O)c2ccc(F)cc2)cc1
GI50 [1]: 20.5 µM
TGI [1]: 41.6 µM
GI50 [2]: 26.1 µM
TGI [2]: 51.5 µM
GI50 [4]: 0.0281 µM
TGI [4]: 0.54 µM
GI50 [5]: 22.5 µM
TGI [5]: > 100 µM
GI50 [6]: 24.8 µM
TGI [6]: 52.5 µM
GI50 [7]: 20.9 µM
TGI [7]: 43 µM
GI50 [8]: 57.1 µM
TGI [8]: > 100 µM
GI50 [9]: 28.1 µM
TGI [9]: > 100 µM
GI50 [10]: 20.6 µM
TGI [10]: 52.2 µM

C/C(=N/NC(=O)c1ccccc1S(N)(=O)=O)C(CN1CCCCC1)C(C1=C(O)C2C=CC=CC2OC1=O)c1ccccc1 (stereo unspecified)
TGI [1]: 41.3 µM
TGI [2]: > 100 µM
TGI [3]: > 100 µM
TGI [4]: > 100 µM
TGI [5]: > 100 µM
TGI [6]: > 100 µM
TGI [7]: > 100 µM
TGI [8]: > 100 µM
TGI [9]: > 100 µM

Cc1c(Cl)cccc1C(=O)Nc1nc2c(s1)CN(C(=O)Nc1cccc(C(F)(F)F)c1)CC2
GI50 [1]: 0.174 µM
TGI [1]: 4.36 µM
GI50 [2]: 0.109 µM
GI50 [3]: 0.167 µM
TGI [3]: > 50 µM
GI50 [5]: 0.212 µM
TGI [5]: > 50 µM
GI50 [6]: 0.29 µM
TGI [6]: > 50 µM
GI50 [7]: 0.155 µM
TGI [7]: 0.885 µM
GI50 [8]: 1.45 µM
TGI [8]: > 50 µM
GI50 [9]: 0.182 µM
TGI [9]: > 17.4 µM
GI50 [10]: 0.204 µM
TGI [10]: > 50 µM

Cc1c(C(Cc2ccccc2N(C)C(=O)/C=C\C(=O)O)c2c[nH]c3ccccc23)c2ccccc2n1C (stereo unspecified)
TGI [1]: 29.6 µM
TGI [2]: 28.6 µM
TGI [3]: 39.5 µM
TGI [4]: 35.6 µM
TGI [5]: 28.4 µM
TGI [6]: 39.8 µM
TGI [7]: 31.8 µM
TGI [8]: 55.5 µM
TGI [9]: 32.7 µM

O=C(/C=C/c1ccccc1)NC1C=Nc2ccc([N+](=O)[O-])cc2NC1=O (stereo unspecified)
TGI [1]: > 100 µM
TGI [2]: > 100 µM
TGI [3]: > 100 µM
TGI [4]: > 100 µM
TGI [5]: > 100 µM
TGI [6]: > 100 µM
TGI [7]: > 100 µM
TGI [8]: > 100 µM
TGI [9]: > 100 µM

COC(=O)C(=O)C(C#N)c1nc2ccccc2s1 (stereo unspecified)
TGI [1]: > 100 µM
TGI [2]: > 100 µM
TGI [3]: > 100 µM
TGI [4]: > 100 µM
TGI [5]: > 100 µM
TGI [6]: > 100 µM
TGI [7]: > 100 µM
TGI [8]: > 100 µM
TGI [9]: > 100 µM
